Results from patent US11155561B2, “Substituted glutarimides as Btk inhibitors” (SHANGHAI MEIZER PHARMACEUTICALS CO., LTD., priority 2017, dated 2021).

Columns and labels:
Btk [1] = biological target: T1, Btk (Homo sapiens, UniProt Q06187); experiment: Inhibition activity of compounds on Btk by Caliper assay; format: biochemical; settings: compound 100 nM, Btk kinase
Experimental: Example 5 Testing the Inhibition Activity of Compounds on Btk by Caliper Assay
The experimental steps were as follows:
Preparation of 1× kinase reaction buffer (50 mM HEPES, PH 7.5; 0.0015% Brij-35) and kinase reaction termination solution (100 mM HEPES, PH 7.5; 0.0015% Brij-35; 0.2% Coating Reagent; 50 mM EDTA);
Preparation of experimental samples: 100 μL of 5 μM sample solution (dissolved in 100% DMSO) was added to a 96-well plate to obtain a 50× sample solution. As a control, two wells were set containing only 100 μL of 100% DMSO on the same plate. One was served as a control without samples and the other was served as a control without enzymes. 10 μL of sample and 90 μL of 1× kinase reaction buffer were added to a 96-well plate as a transfer plate. The transfer plate was shaken for 10 minutes.
Preparation of the test plate: taking 5 μL each of the prepared samples in the 96-well transfer plate into a 384-well plate.
Kinase reaction: to 5 μL of 5× compound solution (dissolved in DMSO, diluted 10 times with water) was added 10 μL of 2.5× Btk kinase solution (kinase was diluted with 1× kinase reaction buffer), and incubated at room temperature for 10 min, then 10 μL of 2.5× substrate peptide solution (FAM-labeled peptide and ATP were diluted with 1× kinase reaction buffer) was added.
Termination of the kinase reaction: 25 μL of kinase termination solution was added after being reacted at 28° C. for a period of time.
The fluorescence (F) was tested on a Caliper and data was collected.
The inhibition rate of kinase activity was calculated: the percent inhibition rate of kinase activity=(FDMSO control−Fsample)/(FDMSO control−Fnegative control)×100, with DMSO as the solution control, and no kinase as the negative control.

[2] = system: DOHH2 cells (human B cell lymphoma cells); experiment: Inhibition of proliferation of DOHH2 cells by CTG assay; format: cell-based; settings: DOHH-2, compound 10 μM, 72 hours
Experimental: (§1) Example 8 Testing the Inhibitory Effect of Formula Compounds on the Proliferation of DOHH2 Cells (Human B Cell Lymphoma Cells) and SU-DHL-6 (Human B Cell Lymphoma Cells) by CTG Assay
(§2) The […] was used to determine the inhibitory effect of the compounds on the proliferation of DOHH2 cells (available from ATCC) and SU-DHL-6 cells (available from ATCC) in vitro. Cells were cultured and compounds were prepared referring to Example 7. The cell plating density was 1×10^4 cells/well for DOHH2 cells, and 1.5×10^4 cells/well for SU-DHL-6 cells. The culture time after the administration was 72 hours. After that an appropriate amount of CTG reagent was added, the luminescence value was measured, and the inhibition rate was calculated.

[3] = system: SU-DHL-6 (human B cell lymphoma cells); experiment: Inhibition of proliferation of SU-DHL-6 cells by CTG assay; format: cell-based; settings: compound 10 μM, 72 hours
Experimental: as §1, §2

Btk [4] = biological target: T1, Btk; experiment: Btk protein degradation activity by Western blot in RPMI8226 cells; format: cell-based; set-up: degradation activity of the compound (10 μM) on Btk protein in RPMI8226 cells; endogenous in cells; host or cells: RPMI8226; key: “−” represents no degradation activity; “+” represents a degradation rate of 10%-30%; “++” represents a degradation rate of 30%-50%; “+++” represents a degradation rate of 50%-90%; “++++” means the degradation rate is greater than 90%; settings: compound 10 μM, 24 hours
Experimental: Example 6 Testing the Btk Protein Degradation Activity of Compounds by Western Blot
Cell lines: RPMI8226 Cell line was cultured in RPMI1640 medium containing 10% calf serum in a 37° C., 5% CO2, and saturated humidity incubator.
DMSO control group and compound intervention group (10 μM) were set. Cells was collected after the treatment for 24 hours, then 100 μL of pre-chilled cell lysate was added and cells were lysed on ice for 30 minutes. Total cell protein was extracted, and protein concentration was determined and quantified by […] (BCA) method. After routine gelatinization, loading, electrophoresis, then transferring to membrane and blocking, rabbit anti-human Btk (1:500) was added, and incubated at 4° C. overnight. The mixture was rinsed and then horseradish peroxidase labeled goat anti-rabbit IgG (1:5000) was added. After the rinsing it was developed by the ECL developing solution, the Bio-Rad gel imaging system was used for scanning and imaging, and the computer software was used for analysis. […] (GAPDH) was used as an internal control.
Image J software was used to analyze the gray scale of each band to calculate the Btk protein degradation rate of the compound.

T1 sequence (Q06187 whole entry): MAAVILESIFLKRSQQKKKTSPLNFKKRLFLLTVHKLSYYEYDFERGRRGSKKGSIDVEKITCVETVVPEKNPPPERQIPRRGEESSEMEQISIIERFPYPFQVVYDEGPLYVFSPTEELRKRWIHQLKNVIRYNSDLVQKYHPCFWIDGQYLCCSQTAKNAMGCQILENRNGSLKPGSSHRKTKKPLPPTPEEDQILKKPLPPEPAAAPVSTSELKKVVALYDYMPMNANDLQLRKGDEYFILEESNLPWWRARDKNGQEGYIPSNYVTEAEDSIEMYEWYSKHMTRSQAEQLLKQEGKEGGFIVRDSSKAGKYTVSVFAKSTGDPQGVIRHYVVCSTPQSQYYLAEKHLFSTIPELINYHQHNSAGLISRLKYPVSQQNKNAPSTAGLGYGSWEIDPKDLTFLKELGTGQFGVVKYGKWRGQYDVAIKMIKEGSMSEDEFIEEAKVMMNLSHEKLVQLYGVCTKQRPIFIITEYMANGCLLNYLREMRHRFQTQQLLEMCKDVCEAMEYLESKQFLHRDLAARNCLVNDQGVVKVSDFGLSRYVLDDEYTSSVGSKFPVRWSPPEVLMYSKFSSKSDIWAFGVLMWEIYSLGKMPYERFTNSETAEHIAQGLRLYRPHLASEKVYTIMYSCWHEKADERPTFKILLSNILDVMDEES

Row | Compound | Degradation activity (Btk [4]) | also measured
1 | Nc1ncnc2c1c(-c1ccc(Oc3ccccc3)cc1)nn2C1CCCN(CCOCCOCCOCCNc2cccc3c2C(=O)N(C2CCC(=O)NC2=O)C3=O)C1 (stereo not drawn) [Compound 15] | ++++ (“++++” means the degradation rate is greater than 90%) | inhibition at 0.1 µM (Btk [1]): 98%; inhibition at 10 µM [2]: 99%; inhibition at 10 µM [3]: 94%
2 | Nc1ncnc2c1c(-c1ccc(Oc3ccccc3)cc1)nn2C1CCCN(C(=O)/C=C/CCOCCOCCOc2cccc3c2C(=O)N(C2CCC(=O)NC2=O)C3=O)C1 (stereo not drawn) [Compound 17] | +++ (“+++” represents a degradation rate of 50%-90%) | 
3 | Nc1ncnc2c1c(-c1ccc(Oc3ccccc3)cc1)nn2C1CCCN(C(=O)/C=C/CCOCCOCCOCCOc2cccc3c2C(=O)N(C2CCC(=O)NC2=O)C3=O)C1 (stereo not drawn) [Compound 18] | +++ (“+++” represents a degradation rate of 50%-90%) | 
4 | Nc1ncnc2c1c(-c1ccc(Oc3ccccc3)cc1)nn2C1CCCN(C(=O)/C=C/CCCOCCOCCOCCOc2cccc3c2C(=O)N(C2CCC(=O)NC2=O)C3=O)C1 (stereo not drawn) [Compound 19] | +++ (“+++” represents a degradation rate of 50%-90%) | 
5 | Nc1ncnc2c1c(-c1ccc(Oc3ccccc3)cc1)nn2C1CCCN(C(=O)/C=C/CCCCOCCOCCOCCOc2cccc3c2C(=O)N(C2CCC(=O)NC2=O)C3=O)C1 (stereo not drawn) [Compound 20] | +++ (“+++” represents a degradation rate of 50%-90%) | 
6 | Nc1ncnc2c1c(-c1ccc(Oc3ccccc3)cc1)nn2C1CCCN(C(=O)/C=C/COCCOCCOCCOCCOc2cccc3c2C(=O)N(C2CCC(=O)NC2=O)C3=O)C1 (stereo not drawn) [Compound 21] | +++ (“+++” represents a degradation rate of 50%-90%) | 
7 | Nc1ncnc2c1c(-c1ccc(Oc3ccccc3)cc1)nn2C1CCCN(C(=O)/C=C/CCOCCOCCOCCOCCOc2cccc3c2C(=O)N(C2CCC(=O)NC2=O)C3=O)C1 (stereo not drawn) [Compound 22] | +++ (“+++” represents a degradation rate of 50%-90%) | 
8 | Nc1ncnc2c1c(-c1ccc(Oc3ccccc3)cc1)nn2C1CCCN(C(=O)/C=C/CCOCCOCCNc2cccc3c2C(=O)N(C2CCC(=O)NC2=O)C3=O)C1 (stereo not drawn) [Compound 23] | ++++ (“++++” means the degradation rate is greater than 90%) | 
9 | Nc1ncnc2c1c(-c1ccc(Oc3ccccc3)cc1)nn2C1CCCN(C(=O)/C=C/CCOCCOCCOCCNc2cccc3c2C(=O)N(C2CCC(=O)NC2=O)C3=O)C1 (stereo not drawn) [Compound 24] | ++++ (“++++” means the degradation rate is greater than 90%) | 
10 | Nc1ncnc2c1c(-c1ccc(Oc3ccccc3)cc1)nn2C1CCCN(C(=O)/C=C/CCCOCCOCCOCCNc2cccc3c2C(=O)N(C2CCC(=O)NC2=O)C3=O)C1 (stereo not drawn) [Compound 25] | ++++ (“++++” means the degradation rate is greater than 90%) | 
11 | Nc1ncnc2c1c(-c1ccc(Oc3ccccc3)cc1)nn2C1CCCN(C(=O)/C=C/CCCCOCCOCCOCCNc2cccc3c2C(=O)N(C2CCC(=O)NC2=O)C3=O)C1 (stereo not drawn) [Compound 26] | ++++ (“++++” means the degradation rate is greater than 90%) | 
12 | Nc1ncnc2c1c(-c1ccc(Oc3ccccc3)cc1)nn2C1CCCN(C(=O)/C=C/COCCOCCOCCOCCNc2cccc3c2C(=O)N(C2CCC(=O)NC2=O)C3=O)C1 (stereo not drawn) [Compound 27] | ++++ (“++++” means the degradation rate is greater than 90%) | 
13 | Nc1ncnc2c1c(-c1ccc(Oc3ccccc3)cc1)nn2C1CCCN(C(=O)/C=C/CCOCCOCCOCCOCCNc2cccc3c2C(=O)N(C2CCC(=O)NC2=O)C3=O)C1 (stereo not drawn) [Compound 28] | +++ (“+++” represents a degradation rate of 50%-90%) | 
14 | C=C(CCCOCCOCCOc1cccc2c1C(=O)N(C1CCC(=O)NC1=O)C2=O)C(=O)N1CCCC(n2nc(-c3ccc(Oc4ccccc4)cc3)c3c(N)ncnc32)C1 (stereo not drawn) [Compound 29] | ++++ (“++++” means the degradation rate is greater than 90%) | 
15 | C=C(CCOCCOCCOc1cccc2c1C(=O)N(C1CCC(=O)NC1=O)C2=O)C(=O)N1CCCC(n2nc(-c3ccc(Oc4ccccc4)cc3)c3c(N)ncnc32)C1 (stereo not drawn) [Compound 30] | ++++ (“++++” means the degradation rate is greater than 90%) | 
16 | C=C(CCOCCOCCOCCOc1cccc2c1C(=O)N(C1CCC(=O)NC1=O)C2=O)C(=O)N1CCCC(n2nc(-c3ccc(Oc4ccccc4)cc3)c3c(N)ncnc32)C1 (stereo not drawn) [Compound 31] | ++++ (“++++” means the degradation rate is greater than 90%) | 
17 | C=C(CCOCCOCCOCCOCCOc1cccc2c1C(=O)N(C1CCC(=O)NC1=O)C2=O)C(=O)N1CCCC(n2nc(-c3ccc(Oc4ccccc4)cc3)c3c(N)ncnc32)C1 (stereo not drawn) [Compound 32] | +++ (“+++” represents a degradation rate of 50%-90%) | 
18 | C=C(CCCOCCOCCNc1cccc2c1C(=O)N(C1CCC(=O)NC1=O)C2=O)C(=O)N1CCCC(n2nc(-c3ccc(Oc4ccccc4)cc3)c3c(N)ncnc32)C1 (stereo not drawn) [Compound 33] | ++++ (“++++” means the degradation rate is greater than 90%) | 
19 | C=C(CCOCCOCCNc1cccc2c1C(=O)N(C1CCC(=O)NC1=O)C2=O)C(=O)N1CCCC(n2nc(-c3ccc(Oc4ccccc4)cc3)c3c(N)ncnc32)C1 (stereo not drawn) [Compound 34] | ++++ (“++++” means the degradation rate is greater than 90%) | 
20 | C=C(CCOCCOCCOCCNc1cccc2c1C(=O)N(C1CCC(=O)NC1=O)C2=O)C(=O)N1CCCC(n2nc(-c3ccc(Oc4ccccc4)cc3)c3c(N)ncnc32)C1 (stereo not drawn) [Compound 35] | ++++ (“++++” means the degradation rate is greater than 90%) | 
21 | C=C(CCOCCOCCOCCOCCNc1cccc2c1C(=O)N(C1CCC(=O)NC1=O)C2=O)C(=O)N1CCCC(n2nc(-c3ccc(Oc4ccccc4)cc3)c3c(N)ncnc32)C1 (stereo not drawn) [Compound 36] | +++ (“+++” represents a degradation rate of 50%-90%) | 
22 | Nc1ncnc2c1c(-c1ccc(Oc3ccccc3)cc1)nn2C1CCCN(C(=O)c2cn(CCOCCOCCOc3cccc4c3C(=O)N(C3CCC(=O)NC3=O)C4=O)nn2)C1 (stereo not drawn) [Compound 37] | ++++ (“++++” means the degradation rate is greater than 90%) | 
23 | Nc1ncnc2c1c(-c1ccc(Oc3ccccc3)cc1)nn2C1CCCN(C(=O)c2cn(CCOCCOCCOCCOc3cccc4c3C(=O)N(C3CCC(=O)NC3=O)C4=O)nn2)C1 (stereo not drawn) [Compound 39] | ++++ (“++++” means the degradation rate is greater than 90%) | 
24 | Nc1ncnc2c1c(-c1ccc(Oc3ccccc3)cc1)nn2C1CCCN(C(=O)c2cn(CCOCCOCCOCCOCCOc3cccc4c3C(=O)N(C3CCC(=O)NC3=O)C4=O)nn2)C1 (stereo not drawn) [Compound 40] | +++ (“+++” represents a degradation rate of 50%-90%) | 
25 | Nc1ncnc2c1c(-c1ccc(Oc3ccccc3)cc1)nn2C1CCCN(C(=O)c2cn(CCOCCOCCOCCNc3cccc4c3C(=O)N(C3CCC(=O)NC3=O)C4=O)nn2)C1 (stereo not drawn) [Compound 43] | ++++ (“++++” means the degradation rate is greater than 90%) | 
26 | Nc1ncnc2c1c(-c1ccc(Oc3ccccc3)cc1)nn2C1CCCN(C(=O)c2cn(CCOCCOCCOCCOCCNc3cccc4c3C(=O)N(C3CCC(=O)NC3=O)C4=O)nn2)C1 (stereo not drawn) [Compound 44] | +++ (“+++” represents a degradation rate of 50%-90%) | 
27 | Nc1ncnc2c1c(-c1ccc(Oc3ccccc3)cc1)nn2C1CCN(CCOCCOCCOCCOc2cccc3c2C(=O)N(C2CCC(=O)NC2=O)C3=O)CC1 (stereo not drawn) [control compound, reference compound] | − | 
